Columns and labels:
Experiment in all cases: relative viability (nuclei count vs DMSO), 5 days (fraction); higher = more cells survive
[1] = compound: Cn1cc(-c2cnn3c(N)c(Br)c([C@@H]4CCCNC4)nc23)cn1 + Cc1nc(Nc2ncc(C(=O)Nc3c(C)cccc3Cl)s2)cc(N2CCN(CCO)CC2)n1 [Dasatinib] (partner 0.075 µM)
In short: (§1)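 Values are medians from duplicate plates. Each reflects relative viability, defined as the nuclei count of treated wells over that of vehicle wells. Lung cancer cell lines in 1536-well plates were pin-tool dosed one day after seeding with one drug alone or with a fixed anchor-drug dose plus five library-drug doses (not always all listed) in √10 steps, then fixed, stained and imaged at 4× after 5 days.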

[2] = compound: Cn1cc(-c2cnn3c(N)c(Br)c([C@@H]4CCCNC4)nc23)cn1 + CC1(C)CCC(c2ccc(Cl)cc2)=C(CN2CCN(c3ccc(C(=O)NS(=O)(=O)c4ccc(N[C@H](CCN5CCOCC5)CSc5ccccc5)c(S(=O)(=O)C(F)(F)F)c4)cc3)CC2)C1 [Navitoclax] (partner 0.5 µM)
In short: as §1

[3] = compound: Cn1cc(-c2cnn3c(N)c(Br)c([C@@H]4CCCNC4)nc23)cn1 + CCNC(=O)c1noc(-c2cc(C(C)C)c(O)cc2O)c1-c1ccc(CN2CCOCC2)cc1 [Luminespib] (partner 0.01 µM)
In short: as §1

[4] = compound: Cn1cc(-c2cnn3c(N)c(Br)c([C@@H]4CCCNC4)nc23)cn1 + CC(C)C[C@H](NC(=O)[C@H](Cc1ccccc1)NC(=O)c1cnccn1)B(O)O [Bortezomib] (partner 0.002 µM)
In short: as §1

Cell Line | relative viability ([1]; first compound 0.05 µM) | relative viability ([1]; first compound 0.1581 µM) | relative viability ([1]; first compound 0.5 µM) | relative viability ([1]; first compound 1.581 µM) | relative viability ([1]; first compound 5 µM) | relative viability ([2]; first compound 0.05 µM) | relative viability ([2]; first compound 0.1581 µM) | relative viability ([2]; first compound 0.5 µM) | relative viability ([2]; first compound 1.581 µM) | relative viability ([2]; first compound 5 µM) | relative viability ([3]; first compound 0.05 µM) | relative viability ([3]; first compound 0.1581 µM) | relative viability ([3]; first compound 0.5 µM) | relative viability ([3]; first compound 1.581 µM) | relative viability ([3]; first compound 5 µM) | relative viability ([4]; first compound 0.05 µM) | relative viability ([4]; first compound 0.1581 µM) | relative viability ([4]; first compound 0.5 µM) | relative viability ([4]; first compound 1.581 µM) | relative viability ([4]; first compound 5 µM)
LU99A | 0.397 | 0.51 | 0.485 | 0.405 | 0.244 | 0.962 | 0.875 | 0.801 | 0.699 | 0.601 | 0.31 | 0.202 | 0.248 | 0.162 | 0.223 | 1.16 | 1.25 | 1.05 | 1.14 | 0.679
LXF-289 | 0.216 | 0.209 | 0.181 | 0.221 | 0.209 | 0.96 | 1.06 | 1.07 | 0.906 | 1.02 | 0.729 | 0.803 | 0.645 | 0.648 | 0.55 | 1.01 | 1.09 | 0.978 | 0.88 | 0.994
NCI-H23 | 0.851 | 0.999 | 0.687 | 0.585 | 0.18 | 1.01 | 1.04 | 0.72 | 0.602 | 0.342 | 0.22 | 0.205 | 0.187 | 0.215 | 0.201 | 1.08 | 1.28 | 1.01 | 0.473 | 0.239
NCI-H322M | 0.268 | 0.279 | 0.268 | 0.231 | 0.245 | 1.08 | 1.24 | 1.18 | 1.2 | 1.19 | 0.71 | 0.33 | 0.426 | 0.376 | 0.279 | 1.2 | 1.32 | 1.22 | 1.21 | 1.26
NCI-H441 | 0.589 | 0.736 | 0.476 | 0.487 | 0.601 | 0.534 | 0.857 | 0.671 |  | 0.696 | 0.373 | 0.348 | 0.31 | 0.254 | 0.302 | 1.05 | 0.585 | 0.87 |  | 0.448
NCI-H460 | 0.533 | 0.437 | 0.483 | 0.317 | 0.144 | 1.04 | 1.32 | 0.972 | 0.749 | 0.448 | 0.0336 | 0.0269 | 0.0266 | 0.0285 | 0.0325 | 0.993 | 1.74 | 0.792 | 0.401 | 0.529
NCI-H520 | 0.178 | 0.258 | 0.191 | 0.176 | 0.165 | 1.21 | 1.01 | 0.966 | 1.13 | 0.883 | 0.207 | 0.206 | 0.217 | 0.219 | 0.221 | 0.702 | 0.609 | 0.385 | 0.471 | 0.344
NCI-H596 | 0.668 | 0.549 | 0.552 | 0.545 | 0.589 | 1.01 | 1.02 | 1.13 | 0.847 | 0.904 | 0.992 | 0.971 | 0.965 | 0.894 | 0.716 | 1.06 | 0.964 | 0.9 | 0.804 | 1.02
NCI-H647 | 0.212 | 0.326 | 0.143 | 0.12 | 0.123 | 1.25 | 1.11 | 0.902 | 0.853 | 0.406 | 0.232 | 0.262 | 0.127 | 0.106 | 0.104 | 1.15 | 1.05 | 0.648 | 0.696 | 0.38
NCI-H727 | 0.29 | 0.292 | 0.333 | 0.403 | 0.287 | 0.4 | 0.43 | 0.333 | 0.463 | 0.212 | 0.345 | 0.412 | 0.315 | 0.354 | 0.343 | 0.818 | 0.887 | 0.901 | 0.623 | 0.412
NCI-H838 | 0.196 | 0.298 | 0.277 | 0.284 | 0.254 | 1.15 | 1.21 | 1.08 | 1.08 | 1.16 | 0.346 | 0.252 | 0.261 | 0.225 | 0.222 | 0.918 | 0.845 | 0.83 | 0.701 | 0.551
NCI-H1355 | 0.705 | 0.705 | 0.596 | 0.652 | 0.566 | 0.964 | 0.945 | 0.926 | 0.986 | 0.857 | 0.691 | 0.662 | 0.699 | 0.609 | 0.735 | 1.23 | 1.33 | 1.17 | 1.15 | 1.24
NCI-H1437 | 0.389 | 0.39 | 0.4 | 0.298 | 0.343 | 1.15 | 1.25 | 1.05 | 1.03 | 1.08 | 1.13 | 1.2 | 1.19 | 0.932 | 0.861 | 0.515 | 0.581 | 0.577 | 0.432 | 0.316
NCI-H1650 |  | 0.296 | 0.257 | 0.256 | 0.178 | 1.27 | 1.23 | 1.25 | 0.845 | 0.67 |  | 0.146 | 0.241 | 0.194 | 0.186 | 0.185 | 0.171 | 0.215 | 0.189 | 0.196
NCI-H1651 | 0.348 | 0.447 | 0.551 | 0.224 | 0.149 | 1.06 | 1.36 | 0.865 | 0.555 | 0.408 | 0.721 | 0.767 | 0.848 | 0.327 | 0.195 | 0.914 | 0.954 | 0.89 | 0.898 | 0.56
NCI-H1666 | 0.818 | 0.734 | 0.642 | 0.756 | 0.785 | 0.906 | 0.956 | 0.871 | 0.829 | 0.842 | 0.971 | 1.02 | 0.906 | 0.958 | 0.917 | 1.09 | 0.804 | 0.786 | 0.802 | 0.721
